Experimental data from patent US10980910B2, “Apparatus and methods for ozone generation and degradation” (Gene Therapy Systems, Inc., priority 2013, dated 2021).
Where two headings read alike, the source gives them in different places.

Key:
[1] = Ozone breakdown in enclosed cell culture chamber, monitored with calibrated ozone analyzer; assay type: physicochemical
Procedure: In Experiment 1, an 1800 mg/hour ozone generator was placed in a 5.5 cubic feet cell culture. The ozone level within the chamber was monitored using a calibrated ozone analyzer. Ozone measurements were captured every 10 seconds. The experimental results, as represented by ozone level over time, are provided in the line graph 500 of FIG. 5A. In test #1, represented by line 510, the ozone generator was run for 80 minutes and achieved a peak ozone concentration within the cell culture chamber of approximately 325 ppm. After the ozone generator was turned off, the ozone was left to break down naturally within the enclosed cell culture chamber. It took approximately 28 hours for the ozone to breakdown to 0.01 ppm ozone.
In tests #2 and #3, represented by lines 520 and 530, respectively, both the ozone generator and an ozone degrader were present in the cell culture chamber. The ozone degrader was formed of three activated carbon filters. With the ozone degrader present, the ozone generator was unable to achieve the peak ozone concentration seen in test #1. In tests #2 and #3, the ozone generator was run for 120 minutes and the concentration of ozone noticeably plateaued. The air within the cell culture chamber reached a peak ozone concentration of approximately 140-150 ppm ozone. […]

[2] = tested on: E. coli K-12 cells (strain DH5); experiment: Sterilization efficacy on LB agar plates loaded with E. coli, ozone generation and degradation cycle in cell culture chamber; assay type: cell-based; settings: test #2 dish; approx. 1.5×10^8 cells plated; ozone 120 minutes plus 15 minutes degradation; peak approx. 140-150 ppm ozone; plates incubated at 37° C. overnight
Procedure: In tests #2 and #3, represented by lines 520 and 530, respectively, both the ozone generator and an ozone degrader were present in the cell culture chamber. The ozone degrader was formed of three activated carbon filters. With the ozone degrader present, the ozone generator was unable to achieve the peak ozone concentration seen in test #1. In tests #2 and #3, the ozone generator was run for 120 minutes and the concentration of ozone noticeably plateaued. The air within the cell culture chamber reached a peak ozone concentration of approximately 140-150 ppm ozone. After the ozone generator was turned off, the ozone began to break down at an accelerated rate with the activated carbon filters present. In both tests #2 and #3, the ozone levels reached a level of 0.01 ppm ozone within 15 minutes.
While the peak ozone concentrations reached in tests #2 and #3 were noticeably lower than the peak ozone concentration of test #1, the ozone levels in tests #2 and #3 were at least sufficient to achieve sterilization. In each of tests #2 and #3, sterilization efficacy was measured with the assistance of LB agar plates loaded with E. coli bacteria. […] The quantity of E. coli present was then analyzed and a photograph of each plate was taken. […] In the test dish 550, a 100% E. coli kill rate was observed; no E. coli was detected.

humans = settings: OSHA limit, per workday; cited from earlier work
[3] = cited from earlier work
bacteriophage T1 = experiment: Effect of ozone on bacteriophage T1 spotted on LB agar plates; assay type: cell-based; settings: spots of 10^9 to 10^6 pfu/mL; ozone 4 hours, peak less than 150 ppm; silver-coated mesh generator; DH5 E. coli overlay, 72 hours at room temperature
Procedure: In Experiment 2, the effect of ozone on bacteriophage T1 was studied. In the experiment, 2.5 μL of purified bacteriophage T1 was spotted in four quadrants of two LB agar plates—a test plate 610 and a control plate 620, shown in FIG. 6. The bacteriophage concentrations on each of the two plates were (clockwise from the spot in the upper right quadrant): 10^9 pfu/mL, 10^8 pfu/mL, 10^7 pfu/mL, and 10^6 pfu/mL.
The test plate 610 was placed in an incubator chamber containing both an ozone generator and an ozone degrader. The ozone generator included two ceramic plates surrounded substantially by a silver-coated metal mesh. The ozone generator was activated and the test plate 610 was treated with ozone for 4 hours. The ozone generator was then turned off, and the ozone degrader, formed of activated carbon filters, accelerated the conversion of ozone to oxygen. The peak ozone concentration level generated within the incubator chamber was less than 150 ppm ozone.
The control plate 620 was placed in a different incubator chamber and left untreated. After the ozone generation and degradation cycle completed in the incubator chamber containing the test plate 610, 1 mL of stationary DH5 E. coli bacteria and top agar were added to each plate and incubated at room temperature for 72 hours. The photograph 600 in FIG. 6 was taken immediately following this 72-hour period.

O=[O+][O-] [ozone]
time for the ozone to breakdown to 0.01 ppm ozone ([1]; test #1, natural breakdown, no degrader, from peak approx. 325 ppm, 5.5 cubic feet chamber): approximately 28 hours | time for ozone levels to reach 0.01 ppm ozone ([1]; tests #2 and #3, three activated carbon filters as ozone degrader, from peak approx. 140-150 ppm): ≤ 15 min | E. coli kill rate [2]: 100% | acceptable ozone exposure in the workplace (humans): under 0.1 ppm | half-life ([3]; in the air): 36 to 72 h | half-life ([3]; in water): 0.13 to 0.5 h | survival of the T1-phage (bacteriophage T1): negligible survival
